# Target: BAX (Homo sapiens, UniProt Q07812)
# Assay: SMAC mCherry assay in permeabilized Bax-/- Bak-/- BMK cells with recombinant Bax and cBid
# Assay type: cell-based, mouse
# Set-up: made in house; host or cells: Escherichia coli BL21-AI
# Conditions: 20 nM Bax, 0.5 nM cBid, 60-80 minutes; read-out: SMAC mCherry I.D IC50
# Method: Bax−/− Bak−/− double-knockout Baby Mouse Kidney (BMK) cells stably expressing a SMAC-(1-56)-mCherry fusion protein were cultured in DMEM complete (DMEM supplemented with 10% FBS and 1× Penicillin-Streptomycin) in 10 cm diameter tissue-culture treated dishes at 37° C. in a humidified incubator with 5% CO2 in air. Cells were washed with PBS, incubated with 1×Trypsin and resuspended in DMEM complete. Detached cells were seeded at 6000 cells per well in 50 uL DMEM complete into a 384 well Perkin-Elmer Phenoplate, incubated at room-temperature for 30 minutes followed by incubation overnight at 37° C. in a humidified incubator with 5% CO2 in air. Recombinant Bax and recombinant cBid were quickly thawed between fingers and 25 mM compound stocks in DMSO were thawed at room temperature. An 8 point titration curve of each compound was created in a 384-well source plate containing Trehalose-Hepes Buffer (THB, 135 mM trehalose, 50 mM KCl, 10 mM HEPES-KOH pH 7.4, 5 mM succinate, 20 uM EDTA, 20 uM EGTA, 0.1% BSA) supplemented with 1/1000 DRAQ5, 0.0025% digitonin, 20 nM Bax and 0.5 nM cBid. The source plate also contained control wells with THB supplemented with 1/1000 DRAQ5, 0.0025% digitonin plus 20 nM Bax (negative control) or 20 nM Bax and 0.5 nM cBid (positive control). Using the Vantage automated liquid handler, DMEM complete media was removed from the cells growing in the 384 well Phenoplate. The cells were washed 2× with 30 uL THB and then 25 uL from the 384 well source plate containing THB proteins and compounds was transferred to the cells growing in the 384 well plate. The cells were incubated for 60-80 minutes at 37 C in a humidified incubator with 5% CO2 in air and then imaged on the Opera Phenix Microscope. Two image channels were acquired: 1) DRAQ5 channel, to visualize nuclei and aid in cell segmentation and 2) SMAC-mCherry channel to visualize mitochondria that retain SMAC-mCherry. Data was processed using PerkinElmer Harmony software where the cells were segmented using the DRAQ5 channel and the mean intensity of SMAC-mCherry for each cell was calculated. The single-cell lobject level data was exported and then analyzed using R code. A per cell SMAC-mCherry intensity cutoff was calculated as 1.33 times the mean per cell SMAC-mCherry intensity of the THB+Bax control. Cells with a SMAC-mCherry intensity below or equal to the cutoff were scored as “released”. The percentage SMAC-mCherry release was calculated as the number of cells scored as “released” divided by the total amount of cells multiplied by 100. Dose-response curves were fit to a 4-parameter log-logistic model to determine the IC50 value for each compound.
# BAX, sequence (Q07812 whole entry): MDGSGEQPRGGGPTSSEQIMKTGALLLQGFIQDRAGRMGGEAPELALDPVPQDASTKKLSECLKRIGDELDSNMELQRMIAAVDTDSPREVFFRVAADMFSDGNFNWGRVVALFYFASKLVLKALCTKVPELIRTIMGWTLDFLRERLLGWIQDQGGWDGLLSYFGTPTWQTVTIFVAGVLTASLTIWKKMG
row,Compound,IC50 [µM]
1,"COc1cc2ccnc(Nc3ccc(F)c(Cl)c3)c2cc1NC(=O)CCCCN1CCCCC1 [Compound 1-2, N-(1-((3-chloro-4-fluorophenyl)amino)-6-methoxyisoquinolin-7-yl)-5-(piperidin-1-yl)pentanamide]",0.1 to 10
2,"COc1cc2ccnc(Nc3cc(Cl)c(F)c(Cl)c3)c2cc1NC(=O)CCCN1CCCCC1 [Compound 1-23, N-(1-((3,5-dichloro-4-fluorophenyl)amino)-6-methoxyisoquinolin-7-yl)-4-(piperidin-1-yl)butanamide]",0.1 to 10
3,"O=C(CCCN1CCCCC1)Nc1ccc2ccnc(Nc3cc(Cl)c(Cl)cc3F)c2c1 [Compound 1-38, N-(1-((4,5-dichloro-2-fluorophenyl)amino)isoquinolin-7-yl)-4-(piperidin-1-yl)butanamide]",0.1 to 10
4,"COc1cc2ccnc(Nc3cccc(F)c3)c2cc1NC(=O)CCCN1CCCCC1 [Compound 1-9, N-(1-((3-fluorophenyl)amino)-6-methoxyisoquinolin-7-yl)-4-(piperidin-1-yl)butanamide]",11 to 50
5,"COc1cc2ccnc(Nc3cccc(C)c3)c2cc1NC(=O)CCCN1CCCCC1 [Compound 1-11, N-(6-methoxy-1-(m-tolylamino)isoquinolin-7-yl)-4-(piperidin-1-yl)butanamide]",51 to 100
6,"COc1cc2ccnc(Nc3ccc(F)c(Cl)c3)c2cc1NC(=O)CCCN1CCOCC1 [Compound 1-6, N-(1-((3-chloro-4-fluorophenyl)amino)-6-methoxyisoquinolin-7-yl)-4-morpholinobutanamide]",11 to 50
7,"O=C(CCCN1CCCCC1)Nc1ccc2ccnc(Nc3ccc(F)c(Cl)c3)c2c1 [Compound 1-18, N-(1-((3-chloro-4-fluorophenyl)amino)isoquinolin-7-yl)-4-(piperidin-1-yl)butanamide]",0.1 to 10
8,"COc1cc2ccnc(Nc3ccc(F)c(C(C)C)c3)c2cc1NC(=O)CCCN1CCCCC1 [Compound 1-30, N-(1-((4-fluoro-3-isopropylphenyl)amino)-6-methoxyisoquinolin-7-yl)-4-(piperidin-1-yl)butanamide]",11 to 50
9,"COc1cc2ccnc(Nc3ccc(C)cc3)c2cc1NC(=O)CCCN1CCCCC1 [Compound 1-14, N-(6-methoxy-1-(p-tolylamino)isoquinolin-7-yl)-4-(piperidin-1-yl)butanamide]",51 to 100
10,"COc1cc(NC(=O)CCCN2CCCCC2)cc2c(Nc3ccc(F)c(Cl)c3)nccc12 [Compound 1-29, N-(1-((3-chloro-4-fluorophenyl)amino)-5-methoxyisoquinolin-7-yl)-4-(piperidin-1-yl)butanamide]",0.1 to 10
11,"COc1ccc(Nc2nccc3cc(OC)c(NC(=O)CCCN4CCCCC4)cc23)cc1Cl [Compound 1-24, N-(1-((3-chloro-4-methoxyphenyl)amino)-6-methoxyisoquinolin-7-yl)-4-(piperidin-1-yl)butanamide]",11 to 50
12,"COc1cc2ccnc(Nc3ccc(F)c(Cl)c3)c2cc1NC(=O)CCCN1CCN(C)CC1 [Compound 1-7, N-(1-((3-chloro-4-fluorophenyl)amino)-6-methoxyisoquinolin-7-yl)-4-(4-methylpiperazin-1-yl)butanamide]",0.1 to 10
13,"CCc1cc(Nc2nccc3cc(OC)c(NC(=O)CCCN4CCCCC4)cc23)ccc1F [Compound 1-28, N-(1-((3-ethyl-4-fluorophenyl)amino)-6-methoxyisoquinolin-7-yl)-4-(piperidin-1-yl)butanamide]",11 to 50
14,"COc1cc2ccnc(Nc3ccc(Cl)c(Cl)c3)c2cc1NC(=O)CCCN1CCCCC1 [Compound 1-27, N-(1-((3,4-dichlorophenyl)amino)-6-methoxyisoquinolin-7-yl)-4-(piperidin-1-yl)butanamide]",0.1 to 10
15,"N#Cc1cccc(Nc2nccc3ccc(NC(=O)CCCN4CCCCC4)cc23)c1 [Compound 1-41, N-(1-((3-cyanophenyl)amino)isoquinolin-7-yl)-4-(piperidin-1-yl)butanamide]",11 to 50

# Reference: patent publication US20250154140A1 (Sunnybrook Research Institute, priority 2022, published 2025)
